Assay [1] deals with NCP252. Put plainly: FRET, Gal4 titration into Cy3-Cy5 labeled NCP252. The assay is classed as binding. Particulars: for S1/2: mean of n = 3. How it is done:
Histone octamers unlabeled or labeled with Cy5 at H2AK119 were prepared as previously described. NCPs were reconstituted by combining octamer with 1.25× excess DNA and performing slow salt dialysis. Free DNA was then separated from fully reconstituted NCPs by sucrose gradient purification. NCPs for fluorescence polarization assays were reconstituted from unlabeled octamer and 207 bp DNA containing the 601 Widom sequence flanked with a 30 bp linker on either side and internally labeled with Fluorescein 27 bp in from the 5′ end. Cy3-Cy5 labeled NCPs for FRET assays were reconstituted with Cy5 labeled octamer plus either 147 bp 601 Widom DNA containing a LexA transcription factor binding site at bases 8–27[34], or 252 bp DNA containing the 601 Widom sequence with a 75 bp linker at the 3′ end, a 30 bp linker at the 5’ end, and a Gal4 transcription factor binding site at bases 8–26 in the 601 Widom sequence. The 147 bp LexA-binding DNA was labeled with Cy3 on the 5′ end, and the 252 bp Gal4-binding DNA was internally labeled with Cy3 34 bp in from the 5′ end.
LexA was expressed in E. coli, separated from genomic DNA and the proteome by polyethyleneimine precipitation, and salted out with ammonium sulfate. LexA was resuspended in buffer A (20 mM potassium phosphate pH 7, 0.1 mM EDTA, 10% glycerol, 1 mM DTT) + 200 mM NaCl and purified by a linear gradient to A + 800 mM NaCl over either a cellulose phosphate or HiTrap Heparin HP column. Final LexA purification was performed on a hydroxyapatite column and dialyzed into 10 mM PIPES pH 7.0, 0.1 mM EDTA, 10% glycerol, and 200 mM NaCl for storage at −80 °C. The His-tagged DNA-binding domain (aa 1–147) of Gal4 was expressed in E. coli and purified from lysate by a linear gradient of buffer B (25 mM Tris pH 7.5, 200 mM NaCl, 0.2% Tween 20, 20 µM zinc acetate, 1 mM dithiothreitol, and 1 mM PMSF) + 10 mM imidazole to B + 200 mM imidazole over a Nickel-NTA column. Gal4 (1–147) was then further purified by a linear gradient of buffer C (25 mM Tris pH 7.5, 20 µM zinc acetate, 1 mM dithiothreitol, and 1 mM PMSF) + 200 mM NaCl to C + 800 mM NaCl over a Tosoh cation exchange column. Purified Gal4 (1–147) was then dialyzed into 10 mM HEPES pH 7.5, 200 mM NaCl, 10% glycerol, 20 µM zinc acetate, 1 mM DTT, and 1 mM PMSF for storage at −80 °C.
Cy3-Cy5 NCP FRET efficiency measurements were carried out on a Horiba Scientific Fluoromax 4. Samples were excited at 510 and 610 nm and the photoluminescence spectra were collected from 530 to 750 nm and 630 to 750 nm for donor and acceptor excitations, respectively. Each wavelength was integrated for one second, and the excitation and emission slit width were set to 5 nm with 2 nm emission wavelength steps. FRET measurements were computed through the (ratio)A method. LexA titrations were carried out in 20 mM Tris pH 7.5, 75 mM NaCl, 10% glycerol, 0.00625% Tween 20 buffer with 5 nM 147 bp Cy3-Cy5 NCPs mixed in 20 µL reaction volumes and allowed to incubate for 5 mins at 4 °C before FRET of the sample was measured. To measure changes in accessibility of the NCP147 due to MORC4 ATPaseCW binding, LexA titrations were repeated in the presence of NCP binding saturating concentrations of MORC4 ATPaseCW. Gal4 (1–147) titrations were carried out in 10 mM Tris pH 8, 130 mM NaCl, 10% glycerol, 0.0075% Tween 20 buffer with 1 nM 252 bp Cy3-Cy5 nucleosomes mixed in 60 µL reaction volumes and allowed to incubate for 10 mins at room temperature before FRET of the sample was measured. […]

Assay [2] has as its target T1, MORC4 CW domain (Homo sapiens, UniProt Q8TE76).
T1 construct: The CW domain (aa 417–475) of MORC4 was cloned into a pGEX 6p-1 vector; GST (N, cleaved yes); made in house; host or cells: E. coli Rosetta2 (DE3) pLysS or BL21 (DE3) RIL
T1 sequence (Q8TE76 417-475): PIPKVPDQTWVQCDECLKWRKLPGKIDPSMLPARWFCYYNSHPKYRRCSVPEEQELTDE
In words: Tryptophan fluorescence binding of histone H3 peptides to MORC4 CW. As to conditions: for Kd: tryptophan fluorescence, 25 °C, pH 6.8, 100 mM NaCl, excitation 295 nm, isolated CW. Here is the method: Spectra were recorded at 25 °C on a Fluoromax-3 spectrofluorometer (HORIBA). The samples containing 0.5–1 µM wild-type or mutated ATPaseCW or CW in 20 mM Tris pH 6.8, 100 mM NaCl, 2 mM DTT buffer and progressively increasing concentrations of the histone peptides were excited at 295 nm. Emission spectra were recorded between 320 and 360 nm with a 0.5 nm step size and a 0.5 s integration time and averaged over three scans. The Kd values were determined using a nonlinear least-squares analysis and the equation:1 ΔI=ΔImaxL+P+Kd−L+P+Kd^2−4PL/2P where [L] is the concentration of the histone peptide, [P] is the concentration of the protein, ΔI is the observed change of signal intensity, and ΔImax is the difference in signal intensity of the free and bound states of the protein. The Kd values were averaged over three separate experiments with the error calculated as the standard deviation between the runs.

In assay [3] the test system is 601 DNA. In words: EMSA with 601 DNA. The format is binding. Particulars: for binding to 601 DNA: 147 bp 601 DNA 5 pmol, pH 7.5, 150 mM NaCl, 0.5 h on ice. Here is the method: EMSA experiments were performed essentially as described. In brief, increasing amounts of WT or mutant CW or ATPaseCW cassette of MORC4 were incubated with 147 bp 601 DNA (5 pmol) or 50 ng of O’RangeRuler 5 bp ladder (Thermo Scientific) in a DNA-binding buffer containing 20 mM Tris-HCl (pH 7.5), 150 mM NaCl, 2.5 mM MgCl2, and 2 mM DTT for 0.5 h on ice. The reaction mixtures were loaded on 5% native polyacrylamide gels, and electrophoresis was performed in 0.2× Tris-borate-EDTA (TBE) buffer at 100 V for 1.2 h on ice. Gels were stained with SYBR Gold (Invitrogen).

Values joined by “and” are separate entries in the source; they are usually repeats but may differ in a detail not shown here. Equal entries are not always repeated.

As to “Gal4: DNA-binding domain (aa 1–147) of transcription factor Gal4”, the S1/2 in assay [1] (FRET efficiency reduced by 50%, without MORC4, 1 nM NCP252, pH 8, 130 mM NaCl, room temperature, 10 min) was 20 ± 4 nM and 20 nM; in assay [1] (in presence of MORC4 ATPaseCW with 0.3 mM ATP) it was 100 ± 7 nM and 100 nM; in assay [1] (in presence of MORC4 ATPaseCW, without ATP), 40 ± 5 nM and 40 nM. For the same compound, the “decrease in ability to bind NCP252” value is ~ 5 fold in assay [1] (MORC4 ATPaseCW with ATP vs no MORC4) and 2 fold in assay [1] (MORC4 ATPaseCW without ATP vs no MORC4).
`C[C@H](N)C(=O)N[C@@H](CCCNC(=N)N)C(=O)N[C@H](C(=O)N[C@@H](CCCC[N+](C)(C)C)C(=O)N[C@@H](CCC(N)=O)C(=O)N[C@H](C(=O)N[C@@H](C)C(=O)N[C@@H](CCCNC(=N)N)C(=O)N[C@@H](CCCCN)C(=O)N[C@@H](CO)C(=O)N[C@H](C(=O)NCC(=O)O)[C@@H](C)O)[C@@H](C)O)[C@@H](C)O` [H3K4me3] yielded a Kd in assay [2] (mean of n = 3) of 112 nM.
As for `C[C@H](N)C(=O)N[C@@H](CCCNC(=N)N)C(=O)N[C@H](C(=O)N[C@@H](CCCCN)C(=O)N[C@@H](CCC(N)=O)C(=O)N[C@H](C(=O)N[C@@H](C)C(=O)N[C@@H](CCCNC(=N)N)C(=O)N[C@@H](CCCCN)C(=O)N[C@@H](CO)C(=O)N[C@H](C(=O)NCC(=O)O)[C@@H](C)O)[C@@H](C)O)[C@@H](C)O` [H3], the Kd in assay [2] (mean ± S.D. of n = 3) was 2660 nM.
With “CW: CW domain (aa 417–475) of MORC4 (PIPKVPDQTWVQCDECLKWRKLPGKIDPSMLPARWFCYYNSHPKYRRCSVPEEQELTDE; left off: GST, end not stated, cleaved)”, in assay [3], the “binding to 601 DNA” value is reported as “indicating the direct interaction”. For the same compound, in assay [2] (MORC4 CW vs other H3K4me3 readers (compared with ref [21],[22])), the “higher binding affinity to H3K4me3 than other readers” value is reported as 7–10 fold.
Take `Nc1ncnc2c1ncn2[C@@H]1O[C@H](COP(=O)(O)OP(=O)(O)NP(=O)(O)O)[C@@H](O)[C@H]1O` [AMPPNP, adenylyl-imidodiphosphate, reference compound]: the “effect on binding of ATPaseCW to 601 DNA” value in assay [3] (added to ATPaseCW) was “increases binding to 601 DNA”.
With “CWKRR: triple mutant of the MORC4 CW domain, K460A/R462A/R463A (PIPKVPDQTWVQCDECLKWRKLPGKIDPSMLPARWFCYYNSHPAYAACSVPEEQELTDE; left off: GST, end not stated, cleaved)”, in assay [3], the “binding to 601 DNA” value is reported as “did not observe the 601 DNA band shift even at the DNA to CWKRR molar ratio of 1 to 200”.

The term Kd denotes a measure of binding affinity in units of concentration.

These data come from paper PMC7596504, “Molecular mechanism of the MORC4 ATPase activation” (Nature Communications, 2020).
